Results published in patent US20070099876A1, “Target directed chemotherapy of tumours of the sexual organs” (priority 2003, published 2007).

System: mammary carcinoma of the rat
Assay: mammary tumours induced by benzidine in female Wistar rats
Format: in vivo
Details: low dosage
Excerpt: For the development of active agents against tumours of the human sexual organs, an animal model closely similar to human tumours is needed, so that truly significant test results can be accomplished. The known “Huggins tumours” (C. Huggins et al., Rapid induction of mammary carcinoma in the rat and the influence of hormones, J. Exper. Med. 109, 25 (1959)) can be generated and combated easily, e.g. by endocrine manipulations and the usual chemotherapy (e.g. with endoxan®=cyclophosphamide monohydrate). In contrast, the tumours generated by benzidine in female Wistar rats require more time for induction and are (like human mammary tumour) only up to about 50% hormone dependent; they (like human mammary tumour) cannot be influenced effectively by chemotherapeutics and other methods of treatment in the art. Therefore, we have found the desired suitable animal model in Wistar rats with mammary tumours induced by benzidine.
20 female Wistar rats are treated with benzidine. The first benzidine dose is 150 mg/kg; then the doses are reduced to weekly 100 mg/kg. Then doses per 75 mg/kg follow within a gap of 14 days. There from a total dose of 1.225 g/kg results.
In total 29 mammary carcinomas are generated. […]
After the first tumour is generated (about 0.5 g) the benzidine application is stopped. […] The tumour size is determined tactually; experienced experimenters can determine it precisely to 0.1 g. […]

With `CN(C)/N=N/c1ccc2c(c1)CCC1C2CCC2(C)C(=O)CCC12` (stereo not shown) [Example 11, 3-(1,1-dimethyltriazenyl)-estrone] the “effect against mammary carcinoma of the rat” value was “very good effect at low dosage”.
